Numbered stars: 1 amine (or outer) side, 2 acyl side, 3 side chain; on linkers, the order of the positions; unused ones are H or OH. Bridge positions count the residues as written; N and C are the ends. Square brackets hold non-standard residues; d marks the D form. Peptide text beside a SMILES is read from it. * marks the point of attachment. TtdsdLys(DOTA)NH2 = NC(=O)[C@@H](CCCCNC(=O)CN1CCN(CC(=O)O)CCN(CC(=O)O)CCN(CC(=O)O)CC1)NC(=O)CCC(=O)NCCCOCCOCCOCCCN*; X3 = O=C(O)CN1CCN(CC(=O)O)CCN(CC(=O)NCCCOCCOCCOCCCN*)CCN(CC(=O)O)CC1; DOTA = O=C(O)CN1CCN(CC(=O)O)CCN(CC(=O)*)CCN(CC(=O)O)CC1; Phe(4-Cl) = N[C@@H](Cc1ccc(Cl)cc1)C(=O)O; 2Nal = N[C@@H](Cc1ccc2ccccc2c1)C(=O)O; Thz(5,5-Me2) = CC1(C)SCN[C@@H]1C(=O)O; 2Pal = N[C@@H](Cc1ccccn1)C(=O)O; X1 = O=C(CC1CCN([*:1])CC1)[*:2]; Cit = NC(=O)NCCC[C@H](N)C(=O)O; Suc = O=C(CCC(=O)[*:2])[*:1]; Tle = CC(C)(C)[C@H](N)C(=O)O; X15 = O=C1NC(=O)C(CC(=O)*)N1; Propanoyl(3-OH) = O=C(CCO)*; 4Amb = NCc1ccc(C(=O)O)cc1; Nle = CCCC[C@H](N)C(=O)O; Orn = NCCC[C@H](N)C(=O)O; Aib = CC(C)(N)C(=O)O; Ahx = NCCCCCC(=O)O; βAla = NCCC(=O)O; NHBu = CCCCN*
Experiments:
[1] = target: T1, PSMA-expressing C4-2 cells (Homo sapiens, UniProt Q04609); experiment: FACS binding assay (competition with 50 nM PSM-0183); settings: pIC50 category of FACS binding, C4-2 cells; read-out: pIC50 [C4-2] CAT (converted)
T1 construct: PSMA-expressing C4-2 cells (ATCC, Cat. No. CRL-3314) were cultured in RPMI-1640; host or cells: C4-2 cells
How it was run: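 Competition format: fluorescent tracer PSM-0183 (50 nM) displaced from PSMA on C4-2 cells by a test compound titration over 1 h at 4 °C. Bound tracer was quantified as flow-cytometric AF488 median fluorescence after washing. Four-parameter logistic fits of MFI data gave IC50 and pIC50.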

[2] = target: T2, Fc-fusion protein of human PSMA (hPSMA-Fc) (Homo sapiens, UniProt Q04609); experiment: Surface plasmon resonance assay (Biacore T200, single cycle kinetic); assay type: binding; settings: pKD category for PSMA SPR activity assay, hPSMA-Fc, 25° C.; read-out: pKD CAT (converted)
T2 construct: purchased Acro Biosystems PSA-H5264
How it was run: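 KD, expressed as pKD, came from 1:1 Langmuir fits of reference- and buffer-blank-subtracted SPR data. The runs were single-cycle kinetics at 25° C in HBST/0.1% DMSO over human PSMA-Fc, captured to ~1000 RU on a peptide-coated CM5 surface and regenerated with 10 mM glycine pH 1.5.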

T2 sequence (Q04609 44-750 limits assumed): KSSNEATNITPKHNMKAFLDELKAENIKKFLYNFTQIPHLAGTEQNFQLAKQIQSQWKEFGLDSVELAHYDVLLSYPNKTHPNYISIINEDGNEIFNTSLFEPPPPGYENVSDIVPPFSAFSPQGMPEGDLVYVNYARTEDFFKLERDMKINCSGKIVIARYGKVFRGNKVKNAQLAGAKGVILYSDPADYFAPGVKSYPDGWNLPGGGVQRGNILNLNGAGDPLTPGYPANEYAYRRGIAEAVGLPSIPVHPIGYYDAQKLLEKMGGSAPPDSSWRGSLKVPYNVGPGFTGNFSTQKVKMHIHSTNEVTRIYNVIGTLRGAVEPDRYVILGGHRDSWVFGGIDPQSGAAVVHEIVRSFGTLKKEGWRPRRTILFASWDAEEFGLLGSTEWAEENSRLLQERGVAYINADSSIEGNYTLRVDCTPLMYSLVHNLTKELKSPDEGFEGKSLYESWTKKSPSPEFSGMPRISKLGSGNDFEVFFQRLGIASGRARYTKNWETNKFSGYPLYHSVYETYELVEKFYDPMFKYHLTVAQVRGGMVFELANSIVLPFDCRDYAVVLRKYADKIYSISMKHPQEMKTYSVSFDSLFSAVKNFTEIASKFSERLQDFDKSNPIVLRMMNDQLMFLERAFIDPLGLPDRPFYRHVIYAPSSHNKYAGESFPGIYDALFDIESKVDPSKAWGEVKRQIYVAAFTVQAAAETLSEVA
T1 sequence (Q04609 whole entry): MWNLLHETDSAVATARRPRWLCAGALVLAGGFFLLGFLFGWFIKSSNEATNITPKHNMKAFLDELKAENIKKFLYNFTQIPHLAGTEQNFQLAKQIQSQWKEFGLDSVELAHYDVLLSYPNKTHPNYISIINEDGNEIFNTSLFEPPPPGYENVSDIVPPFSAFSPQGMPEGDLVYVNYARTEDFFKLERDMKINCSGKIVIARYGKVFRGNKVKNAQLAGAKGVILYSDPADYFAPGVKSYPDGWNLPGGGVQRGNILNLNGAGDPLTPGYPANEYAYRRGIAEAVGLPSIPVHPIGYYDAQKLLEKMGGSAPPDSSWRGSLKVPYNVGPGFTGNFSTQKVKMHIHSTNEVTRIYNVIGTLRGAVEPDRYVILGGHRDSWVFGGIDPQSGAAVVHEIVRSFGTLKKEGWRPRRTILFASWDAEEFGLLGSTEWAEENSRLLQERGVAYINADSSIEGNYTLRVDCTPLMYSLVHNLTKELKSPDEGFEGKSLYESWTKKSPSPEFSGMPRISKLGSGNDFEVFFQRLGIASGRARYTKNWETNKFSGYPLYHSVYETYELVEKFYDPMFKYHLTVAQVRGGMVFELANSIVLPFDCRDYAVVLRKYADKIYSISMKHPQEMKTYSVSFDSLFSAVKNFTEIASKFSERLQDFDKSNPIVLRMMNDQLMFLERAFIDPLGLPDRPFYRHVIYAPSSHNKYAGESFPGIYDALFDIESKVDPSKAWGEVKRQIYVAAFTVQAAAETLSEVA

| Compound | IC50 [1] | Kd [2] |
| --- | --- | --- |
| C[C@@H](O)[C@H](NC(=O)[C@@H](NC(=O)[C@@H]1CSSC[C@H](NC(=O)[C@H](Cc2ccccc2)NC(=O)C(C)(C)NC(=O)CCCCCNC(=O)CN2CCN(CC(=O)O)CCN(CC(=O)O)CCN(CC(=O)O)CC2)C(=O)N[C@@H](CCCCN)C(=O)N[C@@H](CCCNC(=N)N)C(=O)NC(C)(C)C(=O)N[C@@H](CC(N)=O)C(=O)N1)C(C)(C)C)C(N)=O [PSM-0513, DOTA-Ahx-Aib-Phe-[Cys-Lys-Arg-Aib-Asn-Cys]-Tle-Thr-NH2] ({DOTA-Ahx}-[Aib]FCKR[Aib]NC[Tle]T-NH2; disulfide 3-8) | < 0.2 µM | < 0.0126 µM |
| CC(=O)N[C@H](C(=O)NC(C)(C)C(=O)N[C@@H](Cc1ccc(Cl)cc1)C(=O)N[C@H]1CSSC[C@@H](C(=O)N[C@H](C(=O)NCCC(N)=O)C(C)(C)C)NC(=O)[C@H](CC(N)=O)NC(=O)C(C)(C)NC(=O)[C@H](CCCNC(=N)N)NC(=O)[C@H](CCCCN)NC1=O)[C@@H](C)O [PSM-0514, Ac-Thr-Aib-Pcf-[Cys-Lys-Arg-Aib-Asn-Cys]-Tle-Bal-NH2] (Ac-T[Aib][Phe(4-Cl)]CKR[Aib]NC[Tle][βAla]-NH2; disulfide 4-9) | < 0.2 µM | < 0.0126 µM |
| CC(=O)N[C@H](C(=O)NC(C)(C)C(=O)N[C@@H](Cc1ccc2ccccc2c1)C(=O)N[C@H]1CSSC[C@@H](C(=O)N[C@H](C(=O)N[C@H](C(=O)N[C@@H](CC(=O)O)C(N)=O)[C@@H](C)O)C(C)(C)C)NC(=O)[C@H](CC(N)=O)NC(=O)C(C)(C)NC(=O)[C@H](CCCNC(=N)N)NC(=O)[C@H](CCCCN)NC1=O)[C@@H](C)O [PSM-0517, Ac-Thr-Aib-2Ni-[Cys-Lys-Arg-Aib-Asn-Cys]-Tle-Thr-Asp-NH2] (Ac-T[Aib][2Nal]CKR[Aib]NC[Tle]TD-NH2; disulfide 4-9) | < 0.2 µM | < 0.0126 µM |
| CC(=O)N[C@H](C(=O)NC(C)(C)C(=O)N[C@@H](Cc1ccccc1)C(=O)N[C@H]1CSSC[C@@H](C(=O)N[C@H](C(=O)N[C@H](C(=O)NCc2ccc(C(=O)N[C@H](CCCCNC(=O)CN3CCN(CC(=O)O)CCN(CC(=O)O)CCN(CC(=O)O)CC3)C(N)=O)cc2)[C@@H](C)O)C(C)(C)C)NC(=O)[C@H](CC(N)=O)NC(=O)C(C)(C)NC(=O)[C@H](CCCNC(=N)N)NC(=O)[C@H](CCCCN)NC1=O)[C@@H](C)O [PSM-0522, Ac-Thr-Aib-Phe-[Cys-Lys-Arg-Aib-Asn-Cys]-Tle-Thr-Pamb-lys(DOTA)-NH2] (Ac-T[Aib]FCKR[Aib]NC[Tle]T[4Amb][dK](DOTA)-NH2; disulfide 4-9) | < 0.2 µM | < 0.0126 µM |
| CCCC[C@H](NC(=O)[C@@H]1CSSC[C@H](NC(=O)[C@H](Cc2ccccc2)NC(=O)[C@H](C)NC(=O)[C@H](NC(C)=O)[C@H](C)O)C(=O)N[C@@H](CCCCN)C(=O)N[C@@H](CCCNC(=N)N)C(=O)N[C@@H](C)C(=O)N[C@@H](CC(N)=O)C(=O)N1)C(=O)N[C@H](C(=O)N[C@@H](CC(=O)O)C(N)=O)[C@@H](C)O [PSM-0525, Ac-thr-Als-Phe-[Cys-Lys-Arg-Als-Asn-Cys]-Nle-Thr-Asp-NH2] | > 3.16 µM | > 0.501 µM |
| CCCC[C@H](NC(=O)[C@@H]1CSSC[C@H](NC(=O)[C@H](Cc2ccccc2)NC(=O)[C@H](C)NC(=O)[C@@H](NC(C)=O)[C@@H](C)O)C(=O)N[C@@H](CCCCN)C(=O)N[C@@H](CCCNC(=N)N)C(=O)N[C@@H](C)C(=O)N[C@@H](CC(N)=O)C(=O)N1)C(=O)N[C@H](C(=O)N[C@@H](CC(=O)O)C(=O)NCCCOCCOCCOCCCNC(=O)CCC(=O)N[C@H](CCCCNC(=O)CN1CCN(CC(=O)O)CCN(CC(=O)O)CCN(CC(=O)O)CC1)C(N)=O)[C@@H](C)O [PSM-0533, Ac-Thr-Ala-Phe-[Cys-Lys-Arg-Ala-Asn-Cys]-Nle-Thr-Asp-Ttds-lys(DOTA)-NH2] (Ac-TAFCKRANC[Nle]TD-{TtdsdLys(DOTA)NH2}; disulfide 4-9) | 0.2 to 1.26 µM | 0.0126 to 0.126 µM |

More lines, now with the values ahead:

| IC50 [1] | Kd [2] | Compound |
| --- | --- | --- |
| < 0.2 µM | < 0.0126 µM | CCCCNC(=O)[C@@H](NC(=O)[C@@H]1CSSC[C@H](NC(=O)[C@H](Cc2ccccc2)NC(=O)C(C)(C)NC(=O)[C@@H](NC(C)=O)[C@@H](C)O)C(=O)N[C@@H](CCCCN)C(=O)N[C@@H](CCCNC(=N)N)C(=O)NC(C)(C)C(=O)N[C@@H](CC(N)=O)C(=O)N1)C(C)(C)C [PSM-0510, Ac-Thr-Aib-Phe-[Cys-Lys-Arg-Aib-Asn-Cys]-Tle-NHBu] (Ac-T[Aib]FCKR[Aib]NC[Tle]-NHBu; disulfide 4-9) |
| < 0.2 µM | < 0.0126 µM | C[C@@H](O)[C@H](NC(=O)[C@@H](NC(=O)[C@@H]1CSSC[C@H](NC(=O)[C@H](Cc2ccc(Cl)cc2)NC(=O)C(C)(C)NC(=O)[C@@H](NC(=O)CC2CCN(C(=O)CN3CCN(CC(=O)O)CCN(CC(=O)O)CCN(CC(=O)O)CC3)CC2)[C@@H](C)O)C(=O)N[C@@H](CCCN)C(=O)N[C@@H](CCCNC(=N)N)C(=O)NC(C)(C)C(=O)N[C@@H](CC(N)=O)C(=O)N1)C(C)(C)C)C(N)=O [PSM-0511, DOTA-Cmp-Thr-Aib-Pcf-[Cys-Om-Arg-Aib-Asn-Cys]-Tle-Thr-NH2] ({DOTA}-[X1]T[Aib][Phe(4-Cl)]C[Orn]R[Aib]NC[Tle]T-NH2; disulfide 5-10) |
| 0.2 to 1.26 µM | 0.0126 to 0.126 µM | C[C@@H](O)[C@H](NC(=O)[C@@H](NC(=O)[C@@H]1CSSC[C@H](NC(=O)[C@H](Cc2ccccn2)NC(=O)C(C)(C)NC(=O)[C@@H](NC(=O)CC2CCN(C(=O)CN3CCN(CC(=O)O)CCN(CC(=O)O)CCN(CC(=O)O)CC3)CC2)[C@@H](C)O)C(=O)N[C@@H](CCCCN)C(=O)N[C@@H](CCCNC(N)=O)C(=O)NC(C)(C)C(=O)N[C@@H](CC(N)=O)C(=O)N1)C(C)(C)C)C(N)=O [PSM-0512, DOTA-Cmp-Thr-Aib-Opa-[Cys-Lys-Cit-Aib-Asn-Cys]-Tle-Thr-NH2] ({DOTA}-[X1]T[Aib][2Pal]CK[Cit][Aib]NC[Tle]T-NH2; disulfide 5-10) |
| < 0.2 µM | < 0.0126 µM | C[C@@H](O)[C@H](NC(=O)[C@@H](NC(=O)[C@@H]1CSSC[C@H](NC(=O)[C@H](Cc2ccccc2)NC(=O)C(C)(C)NC(=O)CC2NC(=O)NC2=O)C(=O)N[C@@H](CCCCN)C(=O)N[C@@H](CCCNC(=N)N)C(=O)NC(C)(C)C(=O)N[C@@H](CC(N)=O)C(=O)N1)C(C)(C)C)C(N)=O (stereo partly drawn) [PSM-0518, HYDAc-Aib-Phe-[Cys-Lys-Arg-Aib-Asn-Cys]-Tle-Thr-NH2] (X15-[Aib]FCKR[Aib]NC[Tle]T-NH2; disulfide 3-8) |
| 0.2 to 1.26 µM | 0.0126 to 0.126 µM | C[C@@H](O)[C@H](NC(=O)[C@@H](NC(=O)[C@@H]1CSSC[C@H](NC(=O)[C@H](Cc2ccccc2)NC(=O)C(C)(C)NC(=O)[C@@H](NC(=O)CCC(=O)NCCCOCCOCCOCCCNC(=O)CN2CCN(CC(=O)O)CCN(CC(=O)O)CCN(CC(=O)O)CC2)[C@@H](C)O)C(=O)N[C@@H](CCCCN)C(=O)N[C@@H](CCC(N)=O)C(=O)NC(C)(C)C(=O)N[C@@H](CC(N)=O)C(=O)N1)C(C)(C)C)C(N)=O [PSM-0521, DOTA-Ttds-Thr-Aib-Phe-[Cys-Lys-Gln-Aib-Asn-Cys]-Tle-Thr-NH2] ({X3-Suc}-T[Aib]FCKQ[Aib]NC[Tle]T-NH2; disulfide 4-9) |
| > 3.16 µM | > 0.501 µM | CC(=O)N[C@@H](Cc1ccc(Cl)cc1)C(=O)N[C@H]1CSSC[C@@H](C(N)=O)NC(=O)[C@H](CC(N)=O)NC(=O)C(C)(C)NC(=O)[C@H](CCCNC(=N)N)NC(=O)[C@H](CCCCN)NC1=O [PSM-0524, Ac-Pcf-[Cys-Lys-Arg-Aib-Asn-Cys]-NH2] (Ac-[Phe(4-Cl)]CKR[Aib]NC-NH2; disulfide 2-7) |
| < 0.2 µM | < 0.0126 µM | C=C1N[C@@H](CCCCN)C(=O)N[C@@H](CCCNC(=N)N)C(=O)NC(C)(C)C(=O)N[C@@H](CC(N)=O)C(=O)N[C@H](C(=O)N[C@H](C(=O)N[C@H](C(=O)NCCOCCOCC(=O)N[C@H](CCCCNC(=O)CN2CCN(CC(=O)O)CCN(CC(=O)O)CCN(CC(=O)O)CC2)C(N)=O)[C@@H](C)O)C(C)(C)C)CSSC[C@@H]1NC(=O)[C@H](Cc1ccccc1)NC(=O)C(C)(C)NC(=O)[C@@H](NC(C)=O)[C@@H](C)O [PSM-0529, Ac-Thr-Aib-Phe-[Cys-Lys-Arg-Aib-Asn-Cys]-Tle-Thr-O2Oc-lys(DOTA)-NH2] |
| < 0.2 µM | < 0.0126 µM | C[C@@H](O)[C@H](NC(=O)[C@@H](NC(=O)[C@@H]1CSSC[C@H](NC(=O)[C@H](Cc2ccccc2)NC(=O)C(C)(C)NC(=O)CCO)C(=O)N[C@@H](CCCCN)C(=O)N[C@@H](CCCNC(=N)N)C(=O)NC(C)(C)C(=O)N[C@@H](CC(N)=O)C(=O)N1)C(C)(C)C)C(N)=O [PSM-0530, HPA-Aib-Phe-[Cys-Lys-Arg-Aib-Asn-Cys]-Tle-Thr-NH2] ({Propanoyl(3-OH)}-[Aib]FCKR[Aib]NC[Tle]T-NH2; disulfide 3-8) |
| < 0.2 µM | < 0.0126 µM | CC(=O)N[C@H](C(=O)NC(C)(C)C(=O)N[C@@H](Cc1ccccc1)C(=O)N[C@H]1CSSC[C@@H](C(=O)N[C@H](C(=O)N[C@H](C(=O)N[C@@H](CC(=O)O)C(N)=O)[C@@H](C)O)C(C)(C)C)NC(=O)[C@H](CC(N)=O)NC(=O)[C@H]2N(CSC2(C)C)C(=O)[C@H](CCCNC(=N)N)NC(=O)[C@H](CCCCN)NC1=O)[C@@H](C)O [PSM-0532, Ac-Thr-Aib-Phe-[Cys-Lys-Arg-Dtc-Asn-Cys]-Tle-Thr-Asp-NH2] (Ac-T[Aib]FCKR[Thz(5,5-Me2)]NC[Tle]TD-NH2; disulfide 4-9) |

From patent US20260083865A1, “PROSTATE SPECIFIC MEMBRANE ANTIGEN (PSMA) LIGANDS AND USE THEREOF” (priority 2022, published 2026)
